Assays:
[1] = system: IL-17a mRNA; test: Real-time PCR of IL-17a mRNA (placenta/decidua mononuclear cells, fetal brain); assay type: cell-based, mouse
[2] = system: offspring of pregnant mice (MIA mouse model); test: Open field test in adult offspring; assay type: in vivo
Procedure: Maternal Immune Activation. Mice were mated overnight and females were checked daily for the presence of seminal plugs, noted as embryonic day 0.5 (E0.5). On E12.5, pregnant female mice were weighed and injected with a single dose (20 mg/kg; i.p.) of poly(I:C) (Sigma Aldrich) or PBS vehicle. Each dam was returned to its cage and left undisturbed until the birth of its litter. All pups remained with the mother until weaning on postnatal day 21 (P21), at which time mice were group housed at maximum 5 per cage with same-sex littermates. For the IL-17 cytokine blockade experiment, monoclonal IL-17a blocking antibody (clone 50104; R&D) or isotype control antibody (IgG2a, clone 54447; R&D) was administered 6 h before maternal immune activation (FIG. 2) via i.p. route (500 μg/animal) or 2 days after maternal immune activation (FIG. 5) via i.p. route (500 μg/animal).
Open field test. Adult mice were placed in a 50×50 cm white Plexiglas box. Activity was recorded by a video camera and data was analyzed with Ethovision software (Noldus). The software allows display of the paths taken by the mice, and it measures the total distance moved into the center of the arena in a 10 min session.

For poly(I:C), the “IL-17a mRNA in placenta- and decidua-associated mononuclear cells” value ([1]; isolated at E14.5, cultured 24 h) was “strongly up-regulated”, the “IL-17a mRNA in fetal brain at E14.5” value ([1]; regardless of poly(I:C) injection) was “not detected” and the “total distance covered in open field” value ([2]; offspring of MIA mothers) was “did not affect the total distance covered”. The “time in the center of an open field” value ([2]; offspring of poly(I:C)-injected WT or RORγ/γt HET animals vs PBS-injected WT) was “significantly reduced time in the center”.

Reference: US20180371076A1, “MATERNAL TH17 CELLS AND PSYCHIATRIC DISORDERS” (New York University, priority 2017, published 2018)
